“And” between values parts separate entries of the source, which are not always exact repeats. Equal values may be shown once. Read-outs that look alike come from different tables or passages of the source.
Key:
C. elegans = C. elegans motor phenotype scoring on solid media (Punc/jerky-unc, coiled, paralyzed), wild-type young adults; format: in vivo, Caenorhabditis elegans; conditions: for any phene, mean % fraction of young adults exhibiting any phenotype (coiled, jerky-Unc or paralyzed) / atypical locomotion (number of animals) / coiled (number of animals) / no phene (number of animals) / paralyzed (number of animals) / any phene: mean % fraction of young adults exhibiting any phenotype (coiled, jerky-Unc or paralyzed) / any phene (mean % fraction of young adults exhibiting any phenotype: coiled, jerky-Unc or paralyzed): one hour; for any phene, mean % fraction of young adults exhibiting any phenotype (coiled, jerky-Unc or paralyzed) / any phene: mean % fraction of young adults exhibiting any phenotype (coiled, jerky-Unc or paralyzed) / any phene (mean % fraction of young adults exhibiting any phenotype: coiled, jerky-Unc or paralyzed): mean of three biological replicates; for atypical locomotion (number of animals) / coiled (number of animals) / no phene (number of animals) / paralyzed (number of animals): young adults, 20 animals per trial; for EC50: Caenorhabditis elegans, read-out: C. elegans - motor disruption EC50
[1] = tested on: Dirofilaria immitis microfilariae; test: Dirofilaria immitis microfilariae immobility assay (DiroImager, 72 h); conditions: for % effect (motility), DIROIM MF: Dirofilaria immitis microfilariae
Summary of the method: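 About 250 freshly purified microfilariae of the Missouri isolate per well in supplemented RPMI 1640, exposed to compound for 72 h. Motility scored by automated whole-plate optical imaging; medium with 1% DMSO as negative control.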

Pristionchus pacificus = Pristionchus pacificus motor disruption dose-response on solid media, 1 h; conditions: for mean % any phene (coiled, jerky-Unc or paralyzed): Pristionchus pacificus young adults, mean of three biological replicates; for EC50: Pristionchus pacificus, 1 h, read-out: P. pacificus motor disruption EC50
[2] = tested on: Dirofilaria immitis L3/L4; test: Dirofilaria immitis L3/L4 motility assay (DiroImager, 72 h); conditions: Dirofilaria immitis L4
[3] = 3.75uM, single replicate counts
[4] = conc 3.75, observed at one hour
[5] = 3.75uM, single technical replicate
[6] = 15uM, single technical replicate
[7] = 60uM, single technical replicate
[8] = any motor phenotype after 1 h on solid media, ± 95% CI

Structure (SMILES)	any phene, mean % fraction of young adults exhibiting any phenotype (coiled, jerky-Unc or paralyzed) (C. elegans; 3.75uM)	atypical locomotion (number of animals) (C. elegans; [3])	coiled (number of animals) (C. elegans; [3])	no phene (number of animals) (C. elegans; [3])	paralyzed (number of animals) (C. elegans; [3])	any phene, mean % fraction of young adults exhibiting any phenotype (coiled, jerky-Unc or paralyzed) (C. elegans; 15uM)	atypical locomotion (number of animals) (C. elegans; 15uM, single replicate counts)	% effect (motility), DIROIM MF ([1]; 0.016 µM)	% effect (motility), DIROIM MF ([1]; 0.08 µM)	% effect (motility), DIROIM MF ([1]; 0.4 µM)	% effect (motility), DIROIM MF ([1]; 2 µM)	% effect (motility), DIROIM MF ([1]; 10 µM)	mean % any phene (coiled, jerky-Unc or paralyzed) (Pristionchus pacificus; [4])	mean % any phene (coiled, jerky-Unc or paralyzed) (Pristionchus pacificus; conc 15, observed at one hour)	mean % any phene (coiled, jerky-Unc or paralyzed) (Pristionchus pacificus; conc 60, observed at one hour)	EC50 (Pristionchus pacificus)	% effect (motility), DIROIM L4 ([2]; 2 µM)	% effect (motility), DIROIM L4 ([2]; 10 µM)	% effect (motility), DIROIM L4 ([2]; 50 µM)	EC50 (C. elegans; [8])	also measured
CCN1CCN(c2ccc([N+](=O)[O-])cc2)CC1 [Nemacol-8]	0%	0	0	20	0	0%	0	0%	0%	0%	0%	0%	0%	48.3333%	81.6667%	17.8 ± 3.7 µM	0%	5%	5%	–	coiled (number of animals) (C. elegans; 15uM, single replicate counts): 0; no phene (number of animals) (C. elegans; 15uM, single replicate counts): 20; paralyzed (number of animals) (C. elegans; 15uM, single replicate counts): 0; any phene, mean % fraction of young adults exhibiting any phenotype (coiled, jerky-Unc or paralyzed) (C. elegans; 60uM): 28.5965%; atypical locomotion (number of animals) (C. elegans; 60uM, single replicate counts): 4 and 3 and 1 and 5 and 8; coiled (number of animals) (C. elegans; 60uM, single replicate counts): 0 and 2 and 1; no phene (number of animals) (C. elegans; 60uM, single replicate counts): 16 and 17 and 13 and 15 and 11; paralyzed (number of animals) (C. elegans; 60uM, single replicate counts): 0 and 3 and 2 and 1; EC50 (C. elegans; 1 h): > 60 µM
FC(F)(F)c1cccc(N2CCN(C3CCCCCC3)CC2)c1 [Nemacol-52]	–	–	–	–	–	–	–	0%	0%	0%	0%	0%	5%	21.6667%	97.5%	21.7 ± 3.7 µM	0%	0%	15%	3.6 µM	atypical locomotion (number of animals) (C. elegans; [5]): 14 and 12 and 10 and 8 and 15; coiled (number of animals) (C. elegans; [5]): 0; no phene (number of animals) (C. elegans; [5]): 4 and 6 and 10 and 12 and 5; paralyzed (number of animals) (C. elegans; [5]): 2 and 0; any phene: mean % fraction of young adults exhibiting any phenotype (coiled, jerky-Unc or paralyzed) (C. elegans; 3.75uM): 64.1667%; atypical locomotion (number of animals) (C. elegans; [6]): 12 and 7 and 8 and 10 and 13 and 9; coiled (number of animals) (C. elegans; [6]): 0 and 7 and 4 and 5; no phene (number of animals) (C. elegans; [6]): 0; paralyzed (number of animals) (C. elegans; [6]): 8 and 13 and 5 and 6 and 2 and 7; any phene: mean % fraction of young adults exhibiting any phenotype (coiled, jerky-Unc or paralyzed) (C. elegans; 15uM): 100%; atypical locomotion (number of animals) (C. elegans; [7]): 12 and 8 and 7 and 6 and 13; coiled (number of animals) (C. elegans; [7]): 0 and 1; no phene (number of animals) (C. elegans; [7]): 0; paralyzed (number of animals) (C. elegans; [7]): 8 and 12 and 13 and 7; any phene: mean % fraction of young adults exhibiting any phenotype (coiled, jerky-Unc or paralyzed) (C. elegans; 60uM): 100%
Fc1ccc(N2CCN(CC3CCCCC3)CC2)cc1 [Nemacol-9]	21.6667%	0 and 14 and 12	0	20 and 6 and 8	0	44.1667%	5 and 3 and 1 and 2 and 16 and 11	0%	0%	0%	0%	0%	1.667%	10%	100%	20 µM	5%	5%	10%	14.4 ± 13.3 µM	coiled (number of animals) (C. elegans; 15uM, single replicate counts): 2 and 0 and 4 and 7; no phene (number of animals) (C. elegans; 15uM, single replicate counts): 13 and 17 and 19 and 18 and 0; paralyzed (number of animals) (C. elegans; 15uM, single replicate counts): 0 and 2; any phene, mean % fraction of young adults exhibiting any phenotype (coiled, jerky-Unc or paralyzed) (C. elegans; 60uM): 95%; atypical locomotion (number of animals) (C. elegans; 60uM, single replicate counts): 11 and 13 and 12 and 14 and 3 and 1; coiled (number of animals) (C. elegans; 60uM, single replicate counts): 6 and 5 and 4 and 8 and 13; no phene (number of animals) (C. elegans; 60uM, single replicate counts): 0 and 4 and 2; paralyzed (number of animals) (C. elegans; 60uM, single replicate counts): 3 and 2 and 0 and 9 and 6
Cc1cc(N2CCN(CC3CCCCC3)CC2)ccc1[N+](=O)[O-] [Nemacol-25, 1-(cyclohexylmethyl)−4-(3-methyl-4-nitrophenyl)piperazine]	–	–	–	–	–	–	–	0%	0%	0%	40%	60%	0.8333%	6.667%	29.1667%	> 60 µM	0%	11%	100%	41 ± 26.8 µM	any phene (mean % fraction of young adults exhibiting any phenotype: coiled, jerky-Unc or paralyzed) (C. elegans; 3.75uM, third c14 line of each analog): 2.5%; any phene (mean % fraction of young adults exhibiting any phenotype: coiled, jerky-Unc or paralyzed) (C. elegans; 15uM, second c14 line of each analog): 20.8333%; any phene (mean % fraction of young adults exhibiting any phenotype: coiled, jerky-Unc or paralyzed) (C. elegans; 60uM, first c14 line of each analog): 62.5%; EC50 ([1]; Dirofilaria immitis, 72 h, read-out: Dirofilaria immitis filariae EC50): 5.11 µM
Fc1ccc(N2CCN(C3CCCCCC3)CC2)cc1 [Nemacol-51]	–	–	–	–	–	–	–	0%	0%	0%	0%	0%	2.5%	60%	85%	13.2 ± 3 µM	–	0%	10%	4.2 ± 2.3 µM	atypical locomotion (number of animals) (C. elegans; [5]): 7 and 4 and 2 and 14 and 17; coiled (number of animals) (C. elegans; [5]): 0 and 4 and 2; no phene (number of animals) (C. elegans; [5]): 13 and 16 and 18 and 2 and 1; paralyzed (number of animals) (C. elegans; [5]): 0; atypical locomotion (number of animals) (C. elegans; [6]): 13 and 14 and 15 and 6 and 7; coiled (number of animals) (C. elegans; [6]): 1 and 3 and 5 and 2 and 8; no phene (number of animals) (C. elegans; [6]): 6 and 2 and 3 and 0; paralyzed (number of animals) (C. elegans; [6]): 0 and 1 and 6 and 8; any phene: mean % fraction of young adults exhibiting any phenotype (coiled, jerky-Unc or paralyzed) (C. elegans; 15uM): 89.1667%; atypical locomotion (number of animals) (C. elegans; [7]): 3 and 1 and 4 and 0; coiled (number of animals) (C. elegans; [7]): 14 and 17 and 11 and 15; no phene (number of animals) (C. elegans; [7]): 0; paralyzed (number of animals) (C. elegans; [7]): 3 and 2 and 5
CN1CCN(c2ccc([N+](=O)[O-])cc2)CC1 [Nemacol-7]	0%	0	0	20	0	3.333%	0 and 1 and 2	0%	0%	0%	0%	0%	1.667%	5%	41.6667%	> 60 µM	5%	5%	10%	–	coiled (number of animals) (C. elegans; 15uM, single replicate counts): 0; no phene (number of animals) (C. elegans; 15uM, single replicate counts): 20 and 19 and 18; paralyzed (number of animals) (C. elegans; 15uM, single replicate counts): 0; any phene, mean % fraction of young adults exhibiting any phenotype (coiled, jerky-Unc or paralyzed) (C. elegans; 60uM): 14.1667%; atypical locomotion (number of animals) (C. elegans; 60uM, single replicate counts): 1 and 2 and 0 and 4 and 8; coiled (number of animals) (C. elegans; 60uM, single replicate counts): 0; no phene (number of animals) (C. elegans; 60uM, single replicate counts): 19 and 18 and 20 and 16 and 12; paralyzed (number of animals) (C. elegans; 60uM, single replicate counts): 0; EC50 (C. elegans; 1 h): > 60 µM

From publication PMC10066365, “Nemacol is a small molecule inhibitor of C. elegans vesicular acetylcholine transporter with anthelmintic potential” (Nature Communications, 2023)
